According to patent US9932309B2, “2-oxo-3,4-dihydropyridine-5-carboxylates and their use” (UNIVERSITE DE LILLE 2 DROIT ET SANTE, priority 2014, dated 2018):

Experiments:
[1] = biological target: T1, mTGR5 (Mus musculus, UniProt Q80SS6); experiment: TGR5/CRE Luciferase Assay (mTGR5); type: cell-based; settings: for EC50: HEK 293 cells co-transfected with pCMV AC6-TGR5m and pCRE TA-Luciferase, overnight incubation; for mTGR5 % trans: percentage of the 10 μM LCA value, HEK 293 cells transfected with mTGR5
T1 construct: expressed in transfected cells; host or cells: HEK293 cells, transiently co-transfected with the pCRE TA-Luciferase reporter
T1 sequence (Q80SS6 1-329): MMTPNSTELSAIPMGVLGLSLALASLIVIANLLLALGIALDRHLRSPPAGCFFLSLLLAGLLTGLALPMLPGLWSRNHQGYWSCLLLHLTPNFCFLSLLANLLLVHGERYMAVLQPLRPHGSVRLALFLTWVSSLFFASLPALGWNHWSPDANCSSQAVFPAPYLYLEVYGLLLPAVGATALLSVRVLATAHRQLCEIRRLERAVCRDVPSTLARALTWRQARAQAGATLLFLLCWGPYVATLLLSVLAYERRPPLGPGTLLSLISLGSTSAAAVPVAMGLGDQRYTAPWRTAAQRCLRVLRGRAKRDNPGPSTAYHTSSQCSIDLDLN
In short: (§1)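 Transiently co-transfected HEK293 cells expressing human or mouse TGR5 plus a CRE-luciferase reporter were incubated overnight with rising compound concentrations in duplicate. Luminescence reported cAMP-driven expression; 10 μM lithocholic acid served as positive reference. Curves fitted to a 4-parameter logistic.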

[2] = biological target: T2, hTGR5 (Homo sapiens, UniProt Q8TDU6); experiment: TGR5/CRE Luciferase Assay (hTGR5); type: cell-based; settings: for EC50: HEK 293 cells co-transfected with pCMV tag4b-TGR5h and pCRE TA-Luciferase, overnight incubation; for hTGR5 % trans: percentage of the 10 μM LCA value, HEK 293 cells transfected with hTGR5
T2 construct: expressed in transfected cells; host or cells: HEK293 cells, transiently co-transfected with the pCRE TA-Luciferase reporter
T2 sequence (Q8TDU6 1-330): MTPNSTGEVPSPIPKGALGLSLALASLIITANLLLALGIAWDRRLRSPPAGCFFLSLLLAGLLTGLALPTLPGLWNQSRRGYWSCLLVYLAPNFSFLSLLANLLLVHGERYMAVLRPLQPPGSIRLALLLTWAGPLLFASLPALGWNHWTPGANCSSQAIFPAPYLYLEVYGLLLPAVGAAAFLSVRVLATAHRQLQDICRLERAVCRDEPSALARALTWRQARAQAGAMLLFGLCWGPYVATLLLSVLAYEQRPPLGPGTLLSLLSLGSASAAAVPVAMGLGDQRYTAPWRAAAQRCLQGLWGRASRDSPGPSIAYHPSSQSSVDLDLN
In short: as §1

Compound | EC50 [1] [nM] | mTGR5 % trans [1] [%] | EC50 [2] [nM] | hTGR5 % trans [2] [%]
CC1=C(C(=O)OCc2ccc(C(F)(F)F)cc2)C(c2ccc(Cl)cc2)CC(=O)N1C (stereo not drawn) [Example 80, [4-(trifluoromethyl)phenyl]methyl 4-(4-chlorophenyl)-1,6-dimethyl-2-oxo-3,4-dihydropyridine-5-carboxylate] | 1400 | 67 | 1500 | 60
CC1=C(C(=O)OCc2ccccc2)C(c2ccc(Cl)cc2)CC(=O)N1CCCN(C)C (stereo not drawn) [Compound 54, Benzyl 4-(4-chlorophenyl)-1-[3-(dimethylamino)propyl]-6-methyl-2-oxo-3,4-dihydropyridine-5-carboxylate] | – | 0 | 4200 | 10
COc1ccccc1COC(=O)C1=C(C)N(C[C@H]2CCCO2)C(=O)C[C@@H]1c1ccc(Cl)nc1 [Example 165, (2-M ethoxyphenyl)methyl-(4R)-4-(6-chloro-3-pyridyl)-6-methyl-2-oxo-1-[[(2R)-tetrahydrofuran-2-yl]methyl]-3,4-dihydropyridine-5-carboxylate] | – | 71 | 130 | 99

Results, then the molecule that gave them:

EC50 [1] [nM] | mTGR5 % trans [1] [%] | EC50 [2] [nM] | hTGR5 % trans [2] [%] | Compound
300 | 76 | 200 | 78 | COCCN1C(=O)CC(c2ccc(Cl)cc2)C(C(=O)OCc2ccc(C#N)cc2)=C1C (stereo not drawn) [Example 95, (4-cyanophenyl)methyl 4-(4-chlorophenyl)-1-(2-methoxyethyl)-6-methyl-2-oxo-3,4-dihydropyridine-5-carboxylate]
400 | 76 | 400 | 76 | COCCN1C(=O)CC(c2ccc(Cl)cc2)C(C(=O)OCc2ccc(C(=O)OC)cc2)=C1C (stereo not drawn) [Example 97, (4-methoxycarbonylphenyl)methyl 4-(4-chlorophenyl)-1-(2-methoxyethyl)-6-methyl-2-oxo-3,4-dihydropyridine-5-carboxylate]
